According to ChEMBL document CHEMBL1201862, “PubChem BioAssay data set” (2004):
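Cells were grown in 96-well plates and exposed to each compound for 48 hours at five concentrations; endpoints were interpolated linearly between bracketing concentrations, or set to the highest concentration if not reached. GI50 is the concentration that inhibits growth by half.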 Active and inactive are the calls of the source. Rule as the data show it: active = GI50 up to about 1.1 µM and inactive = higher.

Tests used:
Experiment in all cases: growth of human tumour cells (NCI), 48 h
[1] = test system: A498
[2] = test system: ACHN
[3] = test system: COLO 205
[4] = test system: DLD-1
[5] = test system: HCT-15
[6] = test system: HL-60
[7] = test system: IGROV-1
[8] = test system: LOX IMVI
[9] = test system: NCI-H460
[10] = test system: OVCAR-3
[11] = test system: OVCAR-5
[12] = test system: SF-268
[13] = test system: SK-MEL-2
[14] = test system: TK-10
[15] = test system: UACC-257
[16] = test system: UACC-62
[17] = test system: BT-549
[18] = test system: Hs-578T
[19] = test system: NCI/ADR-RES
[20] = test system: T47D

CC1=NN(c2ccccc2)C(=O)C1=C1SCCCS1
GI50 [1]: 45.7 µM (inactive)
GI50 [2]: > 100 µM (inactive)
GI50 [3]: 15.9 µM (inactive)
GI50 [4]: 21.5 µM (inactive)
GI50 [5]: 31.9 µM
GI50 [6]: 19.5 µM (inactive)
GI50 [7]: 30.2 µM (inactive)
GI50 [8]: 23.6 µM (inactive)
GI50 [9]: 35.2 µM (inactive)
GI50 [10]: 22.3 µM (inactive)
GI50 [11]: 54 µM (inactive)
GI50 [12]: 44 µM (inactive)
GI50 [13]: 56 µM (inactive)
GI50 [14]: 23.8 µM (inactive)
GI50 [15]: 28.2 µM (inactive)
GI50 [16]: 17.3 µM (inactive)

OCC1OC(n2cnc3c2NC=NC[C@H]3O)CC1O (stereo partly drawn)
GI50 [1]: 422 µM (inactive)
GI50 [2]: 400 µM (inactive)
GI50 [17]: > 500 µM (inactive)
GI50 [3]: 472 µM (inactive)
GI50 [4]: 494 µM (inactive)
GI50 [5]: > 500 µM
GI50 [6]: 417 µM (inactive)
GI50 [18]: > 500000 nM (inactive)
GI50 [7]: 450 µM (inactive)
GI50 [8]: 463 µM (inactive)
GI50 [9]: 418 µM (inactive)
GI50 [19]: 462 µM (inactive)
GI50 [10]: 497 µM (inactive)
GI50 [11]: > 500 µM (inactive)
GI50 [12]: 472 µM (inactive)
GI50 [13]: 497 µM (inactive)
GI50 [20]: 258 µM (inactive)
GI50 [14]: > 500 µM (inactive)
GI50 [15]: 407 µM (inactive)
GI50 [16]: 415 µM (inactive)

CCOP(=O)(OCC)C1CC(C)OC1=O (stereo not drawn)
GI50 [1]: > 100 µM (inactive)
GI50 [2]: > 100 µM (inactive)
GI50 [3]: > 100 µM (inactive)
GI50 [4]: > 100 µM (inactive)
GI50 [5]: > 100 µM
GI50 [6]: > 100 µM (inactive)
GI50 [7]: > 100 µM (inactive)
GI50 [8]: > 100 µM (inactive)
GI50 [9]: > 100 µM (inactive)
GI50 [10]: > 100 µM (inactive)
GI50 [11]: > 100 µM (inactive)
GI50 [12]: > 100 µM (inactive)
GI50 [13]: > 100 µM (inactive)
GI50 [14]: > 100 µM (inactive)
GI50 [15]: > 100 µM (inactive)
GI50 [16]: > 100 µM (inactive)

Nc1ccc(C(=O)NN2C(=O)C(Cl)C2c2cccc([N+](=O)[O-])c2)cc1 (stereo not drawn)
GI50 [1]: 28.5 µM (inactive)
GI50 [2]: 20.1 µM (inactive)
GI50 [3]: 19 µM (inactive)
GI50 [4]: 17.9 µM (inactive)
GI50 [5]: 18.6 µM
GI50 [6]: 20.7 µM (inactive)
GI50 [7]: 14.3 µM (inactive)
GI50 [8]: 10.2 µM (inactive)
GI50 [9]: 59.7 µM (inactive)
GI50 [10]: 20.5 µM (inactive)
GI50 [11]: 21.1 µM (inactive)
GI50 [12]: 17 µM (inactive)
GI50 [13]: 16.8 µM (inactive)
GI50 [14]: 18.7 µM (inactive)
GI50 [15]: 23.1 µM (inactive)
GI50 [16]: 21.1 µM (inactive)

COC(=O)/C(Cl)=C1/CC1COCc1ccccc1 (stereo not drawn)
GI50 [1]: 22.6 µM (inactive)
GI50 [2]: 25.4 µM (inactive)
GI50 [3]: 21.2 µM (inactive)
GI50 [4]: 20.4 µM (inactive)
GI50 [5]: 17.1 µM
GI50 [6]: 13.6 µM (inactive)
GI50 [7]: 44.9 µM (inactive)
GI50 [8]: > 10 µM (inactive)
GI50 [9]: 43.4 µM (inactive)
GI50 [10]: 23.2 µM (inactive)
GI50 [11]: 74.3 µM (inactive)
GI50 [12]: 43.8 µM (inactive)
GI50 [13]: 31.9 µM (inactive)
GI50 [14]: 30.8 µM (inactive)
GI50 [15]: 34.7 µM (inactive)
GI50 [16]: 23.9 µM (inactive)

Clc1ccc(C2=NN(c3ccccc3)C3c4cc(Br)ccc4OCC23)cc1 (stereo not drawn)
GI50 [1]: > 100 µM (inactive)
GI50 [2]: > 100 µM (inactive)
GI50 [3]: > 100 µM (inactive)
GI50 [4]: > 100 µM (inactive)
GI50 [6]: 40.8 µM (inactive)
GI50 [7]: > 100 µM (inactive)
GI50 [8]: 64.3 µM (inactive)
GI50 [9]: > 100 µM (inactive)
GI50 [10]: > 100 µM (inactive)
GI50 [11]: > 100 µM (inactive)
GI50 [12]: 53.6 µM (inactive)
GI50 [13]: > 100 µM (inactive)
GI50 [14]: > 100 µM (inactive)
GI50 [15]: 99.1 µM (inactive)

COc1ccc(S(=O)(=O)NC(C)C(=O)O)cc1 (stereo not drawn)
GI50 [1]: > 100 µM (inactive)
GI50 [2]: > 100 µM (inactive)
GI50 [3]: > 100 µM (inactive)
GI50 [4]: > 100 µM (inactive)
GI50 [5]: > 100 µM
GI50 [6]: > 100 µM (inactive)
GI50 [7]: > 100 µM (inactive)
GI50 [8]: > 100 µM (inactive)
GI50 [9]: > 100 µM (inactive)
GI50 [10]: > 100 µM (inactive)
GI50 [11]: > 100 µM (inactive)
GI50 [12]: > 100 µM (inactive)
GI50 [13]: > 100 µM (inactive)
GI50 [14]: > 100 µM (inactive)
GI50 [15]: > 100 µM (inactive)
GI50 [16]: > 100 µM (inactive)

COc1ccc(CC2=NCCc3cc(OC)c(OC)cc32)cc1Br
GI50 [1]: 13.1 µM (inactive)
GI50 [2]: 12.9 µM (inactive)
GI50 [3]: 14.6 µM (inactive)
GI50 [4]: 19.1 µM (inactive)
GI50 [6]: 3.1 µM (inactive)
GI50 [7]: > 10 µM (inactive)
GI50 [8]: 5.09 µM (inactive)
GI50 [9]: 6.19 µM (inactive)
GI50 [11]: 1.99 µM (inactive)
GI50 [12]: 41.7 µM (inactive)
GI50 [13]: 33.4 µM (inactive)
GI50 [14]: 50 µM (inactive)
GI50 [15]: 21.3 µM (inactive)
GI50 [16]: 6.67 µM (inactive)

N#CC(N)(C(=O)CCC(=O)Nc1cccc(Cl)c1)c1ccc(Cl)cc1 (stereo not drawn)
GI50 [1]: > 100 µM (inactive)
GI50 [2]: > 100 µM (inactive)
GI50 [3]: > 100 µM (inactive)
GI50 [4]: > 100 µM (inactive)
GI50 [5]: > 100 µM
GI50 [6]: > 100 µM (inactive)
GI50 [7]: > 100 µM (inactive)
GI50 [9]: > 100 µM (inactive)
GI50 [10]: > 100 µM (inactive)
GI50 [12]: > 100 µM (inactive)
GI50 [13]: > 100 µM (inactive)
GI50 [14]: > 100 µM (inactive)
GI50 [15]: > 100 µM (inactive)
GI50 [16]: > 100 µM (inactive)

COc1cccc2c1C(=O)c1c(O)c3c(c(O)c1C2=O)C[C@@](O)(C(=O)CO)C[C@@H]3OC1CC(N2CCOCC2C#N)C(O)C(C)O1 (stereo partly drawn)
GI50 [1]: 2.58e-05 µM (active)
GI50 [2]: 3.27e-05 µM (active)
GI50 [17]: 5.39e-05 µM (active)
GI50 [3]: 0.000136 µM (active)
GI50 [4]: 2.26e-05 µM (active)
GI50 [5]: 4.51e-05 µM
GI50 [6]: 2.02e-05 µM (active)
GI50 [18]: 0.0573 nM (active)
GI50 [7]: 8.57e-05 µM (active)
GI50 [8]: 0.0025 µM (active)
GI50 [9]: 8.17e-06 µM (active)
GI50 [19]: 5.36e-05 µM (active)
GI50 [10]: 2.27e-05 µM (active)
GI50 [11]: 4.98e-05 µM (active)
GI50 [12]: 3.82e-05 µM (active)
GI50 [20]: 0.000102 µM (active)
GI50 [14]: 0.000149 µM (active)
GI50 [15]: 5.97e-05 µM (active)
GI50 [16]: 9.98e-06 µM (active)

Cn1c(=O)nc2n(-c3ccc(Cl)c(C(F)(F)F)c3)c3ccccc3nc-2c1=O
GI50 [1]: > 79.3 µM (inactive)
GI50 [2]: 27.7 µM (inactive)
GI50 [3]: 17.7 µM (inactive)
GI50 [4]: 20.1 µM (inactive)
GI50 [5]: 31.4 µM
GI50 [6]: 19.3 µM (inactive)
GI50 [7]: 84.1 µM (inactive)
GI50 [8]: 35 µM (inactive)
GI50 [9]: 30.2 µM (inactive)
GI50 [10]: 14.7 µM (inactive)
GI50 [11]: 74.3 µM (inactive)
GI50 [12]: 35.6 µM (inactive)
GI50 [13]: 34.7 µM (inactive)
GI50 [14]: > 79.6 µM (inactive)
GI50 [15]: 17.1 µM (inactive)
GI50 [16]: 16.6 µM (inactive)

Cc1c2cc[n+]([O-])cc2c(C)c2c1[nH]c1ccccc12
GI50 [1]: 7.33 µM (inactive)
GI50 [2]: 1.94 µM (inactive)
GI50 [17]: 9.64 µM (inactive)
GI50 [3]: 2.15 µM (inactive)
GI50 [4]: 5.42 µM (inactive)
GI50 [5]: 5.22 µM
GI50 [6]: 7.8 µM (inactive)
GI50 [18]: 3540 nM (inactive)
GI50 [7]: 6.89 µM (inactive)
GI50 [8]: 1.67 µM (inactive)
GI50 [9]: 2.45 µM (inactive)
GI50 [19]: 20.8 µM (inactive)
GI50 [10]: 12.5 µM (inactive)
GI50 [11]: 4.59 µM (inactive)
GI50 [12]: 4.9 µM (inactive)
GI50 [13]: 12.1 µM (inactive)
GI50 [20]: 2.14 µM (inactive)
GI50 [14]: 5.32 µM (inactive)
GI50 [15]: 17.7 µM (inactive)
GI50 [16]: 7.14 µM (inactive)

O=c1c2cccc3cccc(c4n1CCN=4)c32
GI50 [1]: 40.3 µM (inactive)
GI50 [2]: 56 µM (inactive)
GI50 [3]: > 100 µM (inactive)
GI50 [4]: 52.5 µM (inactive)
GI50 [5]: 85.7 µM
GI50 [6]: 56.8 µM (inactive)
GI50 [7]: 82.6 µM (inactive)
GI50 [8]: 32 µM (inactive)
GI50 [9]: 61.1 µM (inactive)
GI50 [10]: > 100 µM (inactive)
GI50 [11]: > 100 µM (inactive)
GI50 [12]: > 100 µM (inactive)
GI50 [13]: 63.7 µM (inactive)
GI50 [14]: 17.5 µM (inactive)
GI50 [15]: > 100 µM (inactive)
GI50 [16]: 84.5 µM (inactive)

CCCCCCC(=O)OC[n+]1ccc2c(C)c3[nH]c4ccc(OC)cc4c3c(C)c2c1
GI50 [1]: 0.863 µM (active)
GI50 [2]: 0.0656 µM (active)
GI50 [3]: 0.207 µM (active)
GI50 [4]: 0.092 µM (active)
GI50 [5]: 0.117 µM
GI50 [6]: 0.245 µM (active)
GI50 [18]: 1320 nM (inactive)
GI50 [7]: 0.268 µM (active)
GI50 [8]: 0.217 µM (active)
GI50 [9]: 0.0382 µM (active)
GI50 [19]: 0.2 µM (active)
GI50 [10]: 1.57 µM (inactive)
GI50 [11]: 1.05 µM (active)
GI50 [12]: 0.154 µM (active)
GI50 [13]: 1.33 µM (inactive)
GI50 [20]: 0.883 µM (active)
GI50 [14]: 2.05 µM (inactive)
GI50 [15]: 1.01 µM (active)
GI50 [16]: 0.953 µM (active)

CCOc1ccc2c(c1)[n+]([O-])c(-c1ccccc1)c(N)[n+]2[O-]
GI50 [1]: 82.6 µM (inactive)
GI50 [2]: 55.1 µM (inactive)
GI50 [3]: 30.5 µM (inactive)
GI50 [4]: > 100 µM (inactive)
GI50 [5]: 55.2 µM
GI50 [6]: 37 µM (inactive)
GI50 [7]: 82.6 µM (inactive)
GI50 [8]: > 100 µM (inactive)
GI50 [9]: 51.6 µM (inactive)
GI50 [10]: 82.2 µM (inactive)
GI50 [11]: > 100 µM (inactive)
GI50 [12]: 36.6 µM (inactive)
GI50 [13]: > 100 µM (inactive)
GI50 [14]: > 100 µM (inactive)
GI50 [15]: 41.5 µM (inactive)
GI50 [16]: 30.5 µM (inactive)
